Measured values taken from patent US20210008101A1, “METHODS AND COMPOSITIONS FOR PREVENTING, REDUCING OR ERADICATING TOXICITY CAUSED BY ACETAMINOPHEN (APAP)” (SINEW PHARMA INC., priority 2018, published 2021).
“Also recorded” adds a separate entry of the source.

Columns and labels:
Type in all cases: in vivo, Sprague-Dawley rats
[1] = tested on: APAP-induced nephrotoxicity; assay: Serum creatinine and BUN (kidney function) in APAP-induced toxicity animal model; conditions: SD-rats, mean ± SD
Experimental: (§1) Male Sprague-Dawley rats (weighing 220-300 g) were obtained from Professor Dr. Gonzalez of the American Country Health Research Institute (USA), introduces three male and four female mice, pairs voluntarily reproduces. All of the experiments were performed in adherence with the National Institutes of Health Guidelines for the treatment of animals. All of the mice were maintained in a room with air/humidity control and a 12-h light/dark cycle, and allowed access to food and water ad libitum throughout the experiment.
(§2) In the single dose study of the antidote effect of APAP metabolic enzyme inhibition on APAP-induced nephrotoxicity, rats were randomly divided into 3 treatment groups: (1) a normal control group (NC, n=5), in which normal SD-rats were orally administrated with saline four times a day for multiple doses at a volume of 1 mL/kg; (2) an APAP control group (APAP, n=5), in which normal SD-rats were orally administrated with APAP in saline at dose of 1 g/kg (1,000 mg/kg) for single oral dose administration; (3) an positive control group (NAC, n=5), in which normal SD-rats were orally administrated with APAP and N-acetylcysteine (NAC) in saline at dose of 1 g/kg and 140 mg/kg for single oral dose administration; (4) the various selected antidote test groups (each groups, n=5), in which normal SD-rats were orally administered with APAP in saline at dose of 1,000 mg/kg and e various antidote agents each at dose of less than or equivalent to 200 mg per 60 kg person body weight of single oral dose administration. In addition, according to US FDA Guidance for Industry “Estimating the Maximum Safe Starting Dose in Initial Clinical Trials for Therapeutics in Adult Healthy Volunteers”, the HED (human equivalent dose) for a human adult of 60 kg can be calculated as follows: HED=animal dose (1,000 mg/kg in rats)×human body weight (60 kg)/6.2=9.677g (about 10 g).
(§3) At the end of the treatment, the animals were sacrificed under diethyl ether anesthesia. Blood was collected from the hearts of the mice into heparin tubes, and plasma was separated by centrifugation at 13,000×g for 5 min at 4° C. Aliquots of plasma were transferred to Eppendorf tubes and stored at −80° C. until analysis.
Serum creatinine and BUN levels were measured using the commercial kits (BEN) (Biochemical Enterprise, Milano, Italy) CR280 and BK151 in an automatic biochemical analyzer (ChemWell, Palm City, Fla.) at 340 nm and 510 nm, respectively.
(§4) All data are represented in mean ± standard deviation (SD) and the results are calculated using ANOVA to determine the significance. Statistical Package of the Social Science program (Version 13, SPSS Inc.) is used for calculations followed by post hoc test to examine the least significant difference for multiple comparisons so as to confirm the significant differences between groups and the average difference between groups was significant p<0.05.

[2] = tested on: APAP-induced hepatotoxicity; assay: Plasma AST and ALT determination in APAP-induced toxicity animal model; conditions: SD-rats, mean ± SD
Experimental: as §1
In the single dose study […], rats were randomly divided into 3 treatment groups: (1) a normal control group (NC, n=5), in which normal SD-rats were orally administrated with saline four times a day for multiple doses at a volume of 1 mL/kg; (2) an APAP control group (APAP, n=5), in which normal SD-rats were orally administrated with APAP in saline at dose of 1 g/kg (1,000 mg/kg) for single oral dose administration; (3) an positive control group (NAC, n=5), in which normal SD-rats were orally administrated with APAP and N-acetylcysteine (NAC) in saline at dose of 1 g/kg and 140 mg/kg for single oral dose administration; (4) the various selected antidote test groups (each groups, n=5), in which normal SD-rats were orally administered with APAP in saline at dose of 1,000 mg/kg and e various antidote agents each at dose of less than or equivalent to 200 mg per 60 kg person body weight of single oral dose administration. In addition, according to US FDA Guidance for Industry “Estimating the Maximum Safe Starting Dose in Initial Clinical Trials for Therapeutics in Adult Healthy Volunteers”, the HED (human equivalent dose) for a human adult of 60 kg can be calculated as follows: HED=animal dose (1,000 mg/kg in rats)×human body weight (60 kg)/6.2=9.677g (about 10 g).
as §3
Plasma enzyme activities (aspartate aminotransferase [AST] and alanine aminotransferase [ALT]) were determined at 37° C. by using a Synchron LXi 725 (Beckman Instruments, Palo Alto, Calif. USA) with kits provided by the manufacturer.
as §4

[3] = tested on: toxicity (nephrotoxicity and hepatotoxicity) caused by APAP; assay: Overall antidote activity against toxicity caused by APAP (animal model); conditions: rats given APAP 1,000 mg/kg; summary of Table 1
Experimental: as §1, §2

[4] = tested on: APAP-induced renal lesions; assay: Histological examination of kidney (H&E) in APAP-induced toxicity animal model; conditions: H&E stained kidney section, 200×
Experimental: as §1, §2
The kidney groups were fixed in 10% neutral formalin for 48-72 h. Then, tissues were trimmed and processed for a routine histopathological examination. […]

[5] = APAP 1,000 mg/kg oral plus antidote at high dose
[6] = APAP 1,000 mg/kg oral plus antidote at low dose
[7] = APAP alone 1,000 mg/kg single oral dose (toxicity control group), n=5
[8] = APAP alone 1,000 mg/kg single oral dose (toxicity control group), n=5, listed as AAP
[9] = APAP 1,000 mg/kg single oral dose plus antidote single oral dose, n=5

Question: `O=c1c(O)c(-c2ccc(O)cc2)oc2cc(O)cc(O)c12` [Kaempferol] was tested. Which “BUN (nephrotoxicity)” value [1, 5] did it give?
Answer: Its value is 31.5 ± 7.6 mg/dL.

Question: And the “Creatinine (nephrotoxicity)” value [1, 5]?
Answer: Its value is 0.38 ± 0.09 mg/dL.

Question: And the “BUN (nephrotoxicity)” value [1, 6]?
Answer: Its value is 58.8 ± 7.0 mg/dL.

Question: And the “Creatinine (nephrotoxicity)” value [1, 6]?
Answer: The value was 0.70 ± 0.09 mg/dL.

Question: What about the “ALT (hepatotoxicity)” value [2, 5] of the same compound?
Answer: Its value is 82.2 ± 17.6 IU/L.

Question: And the “AST (hepatotoxicity)” value [2, 5]?
Answer: The value was 332.2 ± 27.1 IU/L.

Question: What about the “ALT (hepatotoxicity)” value [2, 6] of the same compound?
Answer: Its value is 179.4 ± 12.9 IU/L.

Question: And the “AST (hepatotoxicity)” value [2, 6]?
Answer: Its value is 395.6 ± 32.6 IU/L.

Question: What about the “Antidote activity against toxicity (nephrotoxicity and hepatotoxicity) caused by APAP” value (shortened to “Antidote activity against toxicity”) [3] of the same compound?
Answer: The value was “effective in reducing or eradicating toxicity”.

Question: `CC(=O)Nc1ccc(O)cc1` [APAP, N-acetyl-para-aminophenol] was tested. Which “BUN (nephrotoxicity)” value [1, 7] did it give?
Answer: Its value is 87.8 ± 6.6 mg/dL.

Question: What about the “Creatinine (nephrotoxicity)” value [1, 7] of the same compound?
Answer: The value was 1.13 ± 0.17 mg/dL.

Question: And the “BUN (nephrotoxicity)” value [1, 8]?
Answer: Its value is 87.8 ± 6.6 mg/dL.

Question: What about the “Creatinine (nephrotoxicity)” value [1, 8] of the same compound?
Answer: Its value is 1.13 ± 0.17 mg/dL.

Question: And the “ALT (hepatotoxicity)” value [2, 7]?
Answer: Its value is 382.3±32.1 IU/L.

Question: And the “AST (hepatotoxicity)” value [2, 7]?
Answer: Its value is 591.0±59.2 IU/L.

Question: What about the “ALT (hepatotoxicity)” value [2, 8] of the same compound?
Answer: The value was 382.3 ± 32.1 IU/L.

Question: What about the “AST (hepatotoxicity)” value [2, 8] of the same compound?
Answer: Its value is 591.0 ± 59.2 IU/L.

Question: What about the “Kidney histology (renal lesions), FIG. 1” value ([4]; acetaminophen 1 g/kg alone) of the same compound?
Answer: The value was “severe renal lesions including necrosis, congestion and extravasation of red blood cells”.

Question: And the “Kidney histology (renal lesions), FIG. 1” value ([4]; acetaminophen 1 g/kg alone, listed as acetaminophen)?
Answer: Its value is “Severe necrosis, congestion and extravasation of red blood cells were seen”.

Question: Which results are given for `OC[C@H]1O[C@H](O[C@]2(CCl)O[C@H](CCl)[C@@H](O)[C@@H]2O)[C@H](O)[C@@H](O)[C@H]1Cl` [Sucralose]?
Answer: BUN (nephrotoxicity) [1, 9]: 33.6 ± 2.7 mg/dL; Creatinine (nephrotoxicity) [1, 9]: 0.40 ± 0.15 mg/dL; ALT (hepatotoxicity) [2, 9]: 82.8 ± 8.4 IU/L; AST (hepatotoxicity) [2, 9]: 288.4 ± 33.8 IU/L; Antidote activity against toxicity (nephrotoxicity and hepatotoxicity) caused by APAP [3]: effective in reducing or eradicating toxicity

Question: How did the “BUN (nephrotoxicity)” value [1, 9] turn out when `OC[C@@H](O)[C@@H](O)[C@H](O)[C@H](O)CO` [Mannitol] was run?
Answer: The value was 41.0 ± 2.6 mg/dL.

Question: And the “Creatinine (nephrotoxicity)” value [1, 9]?
Answer: The value was 0.56 ± 0.13 mg/dL.

Question: What about the “ALT (hepatotoxicity)” value [2, 9] of the same compound?
Answer: Its value is 91.9 ± 8.4 IU/L.

Question: What about the “AST (hepatotoxicity)” value [2, 9] of the same compound?
Answer: Its value is 365.7 ± 35.5 IU/L.

Question: What about the “Antidote activity against toxicity” value [3] of the same compound?
Answer: Its value is “effective in reducing or eradicating toxicity”.

Question: What does the source list for `CC(=O)N[C@@H](CS)C(=O)O` [NAC, N-acetylcysteine, reference compound]?
Answer: BUN (nephrotoxicity) [1, 9]: 48.4 ± 9.8 mg/dL; Creatinine (nephrotoxicity) [1, 9]: 0.64 ± 0.05 mg/dL; ALT (hepatotoxicity) [2, 9]: 206.7 ± 20.1 IU/L; AST (hepatotoxicity) [2, 9]: 423.7 ± 38.1 IU/L; Kidney histology (renal lesions), FIG. 1 ([4]; acetaminophen 1 g/kg plus antidote): Mild to moderate degenerations were seen; also recorded: reduced to mild to moderate level

Question: For `O=c1cc(-c2ccc(O)c(O)c2)oc2cc(O)cc(O)c12` [Luteolin], which “BUN (nephrotoxicity)” value [1, 5] is on record?
Answer: The value was 23.7 ± 4.4 mg/dL.

Question: And the “Creatinine (nephrotoxicity)” value [1, 5]?
Answer: Its value is 0.25 ± 0.07 mg/dL.

Question: And the “BUN (nephrotoxicity)” value [1, 6]?
Answer: The value was 31.5 ± 7.3 mg/dL.

Question: And the “Creatinine (nephrotoxicity)” value [1, 6]?
Answer: The value was 0.43 ± 0.08 mg/dL.

Question: And the “ALT (hepatotoxicity)” value [2, 5]?
Answer: The value was 57.1 ± 14.7 IU/L.

Question: And the “AST (hepatotoxicity)” value [2, 5]?
Answer: Its value is 223.8 ± 15.5 IU/L.

Question: And the “ALT (hepatotoxicity)” value [2, 6]?
Answer: The value was 78.9 ± 15.7 IU/L.

Question: What about the “AST (hepatotoxicity)” value [2, 6] of the same compound?
Answer: The value was 279.1 ± 35.1 IU/L.

Question: And the “Antidote activity against toxicity” value [3]?
Answer: The value was “effective in reducing or eradicating toxicity”.

Question: What does the source list for `O=C1C[C@@H](c2ccc(O)cc2)Oc2cc(O)cc(O)c21` [Nariagenin]?
Answer: BUN (nephrotoxicity) [1, 9]: 36.0 ± 7.8 mg/dL; Creatinine (nephrotoxicity) [1, 9]: 0.32 ± 0.03 mg/dL; ALT (hepatotoxicity) [2, 9]: 63.1 ± 11.6 IU/L; AST (hepatotoxicity) [2, 9]: 231.1 ± 39.0 IU/L; Antidote activity against toxicity (nephrotoxicity and hepatotoxicity) caused by APAP [3]: effective in reducing or eradicating toxicity
